In the assay the target is BRD4 (Homo sapiens, UniProt O60885). The assay is described as follows: PROTAC degradation in bladder cancer cells by Western blot; blocked by JQ1, MG132 and MLN4924. In kind it is cell-based. (In general: In western blotting, separated proteins are transferred to a membrane and probed.)

The values below come from article PMC9887192, “Lethal activity of BRD4 PROTAC degrader QCA570 against bladder cancer cells” (Frontiers in Chemistry, 2023).

Broadly, the DC50 is the midpoint of the concentration-degradation curve. High values mean a less potent degrader, low ones a more potent degrader.

Compound `Cc1nnc2n1-c1sc(C#Cc3cnn(CCCC#Cc4cccc5c4CN(C4CCC(=O)NC4=O)C5=O)c3)c(Cc3ccccc3)c1COC2` (stereo not shown) [QCA570] gave a 50% degradation concentration (DC50) of roughly 1 nM.
